Results as given in US7601716B2, “Pyridopyrazines and derivatives thereof as ALK and c-Met inhibitors” (Cephalon, Inc., priority 2006, dated 2009).
pIC50: −log10 of the molar value. Counter-ions that a name gives are not always drawn.

How the values were obtained:
[1] = molecular target: T1, c-Met (cytoplasmic domain) (Homo sapiens, UniProt P08581); experiment: c-Met Kinase Assay (ELISA/TRF, PLC-γ substrate); assay type: biochemical; conditions: 3 μM ATP (Km level); read-out: c-Met Kinase Inhibition (IC50)
T1 construct: Reactions were initiated with 30 ng/mL c-Met (cytoplasmic domain, Invitrogen Corporation #PV3143); purchased Invitrogen Corporation PV3143
Summary of the method: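 Readout is TRF of europium anti-phosphotyrosine (PT66) bound to GST–PLC-γ substrate coated at 10 μg/mL, after a 15 min, 37 °C reaction started with 30 ng/mL c-Met cytoplasmic domain. Percent inhibition plotted against log compound concentration and fitted (variable slope) for IC50.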

[2] = molecular target: baculovirus-expressed ALK (Homo sapiens, UniProt Q9UM73); experiment: ALK Kinase Assay (ELISA/TRF, PLC-γ substrate); assay type: biochemical; conditions: read-out: ALK Kinase Inhibition (IC50); further: 1 µM ATP (Km level)
Summary of the method: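 ALK at 30 ng/ml phosphorylated plate-bound PLC-γ–GST fusion (coated from 10 μg/mL) during 15 minutes at 37° C. Product was detected with Eu-N1 PT66 anti-phosphotyrosine antibody and measured by time-resolved fluorescence.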

Sequence of baculovirus-expressed ALK (Q9UM73 19-1620): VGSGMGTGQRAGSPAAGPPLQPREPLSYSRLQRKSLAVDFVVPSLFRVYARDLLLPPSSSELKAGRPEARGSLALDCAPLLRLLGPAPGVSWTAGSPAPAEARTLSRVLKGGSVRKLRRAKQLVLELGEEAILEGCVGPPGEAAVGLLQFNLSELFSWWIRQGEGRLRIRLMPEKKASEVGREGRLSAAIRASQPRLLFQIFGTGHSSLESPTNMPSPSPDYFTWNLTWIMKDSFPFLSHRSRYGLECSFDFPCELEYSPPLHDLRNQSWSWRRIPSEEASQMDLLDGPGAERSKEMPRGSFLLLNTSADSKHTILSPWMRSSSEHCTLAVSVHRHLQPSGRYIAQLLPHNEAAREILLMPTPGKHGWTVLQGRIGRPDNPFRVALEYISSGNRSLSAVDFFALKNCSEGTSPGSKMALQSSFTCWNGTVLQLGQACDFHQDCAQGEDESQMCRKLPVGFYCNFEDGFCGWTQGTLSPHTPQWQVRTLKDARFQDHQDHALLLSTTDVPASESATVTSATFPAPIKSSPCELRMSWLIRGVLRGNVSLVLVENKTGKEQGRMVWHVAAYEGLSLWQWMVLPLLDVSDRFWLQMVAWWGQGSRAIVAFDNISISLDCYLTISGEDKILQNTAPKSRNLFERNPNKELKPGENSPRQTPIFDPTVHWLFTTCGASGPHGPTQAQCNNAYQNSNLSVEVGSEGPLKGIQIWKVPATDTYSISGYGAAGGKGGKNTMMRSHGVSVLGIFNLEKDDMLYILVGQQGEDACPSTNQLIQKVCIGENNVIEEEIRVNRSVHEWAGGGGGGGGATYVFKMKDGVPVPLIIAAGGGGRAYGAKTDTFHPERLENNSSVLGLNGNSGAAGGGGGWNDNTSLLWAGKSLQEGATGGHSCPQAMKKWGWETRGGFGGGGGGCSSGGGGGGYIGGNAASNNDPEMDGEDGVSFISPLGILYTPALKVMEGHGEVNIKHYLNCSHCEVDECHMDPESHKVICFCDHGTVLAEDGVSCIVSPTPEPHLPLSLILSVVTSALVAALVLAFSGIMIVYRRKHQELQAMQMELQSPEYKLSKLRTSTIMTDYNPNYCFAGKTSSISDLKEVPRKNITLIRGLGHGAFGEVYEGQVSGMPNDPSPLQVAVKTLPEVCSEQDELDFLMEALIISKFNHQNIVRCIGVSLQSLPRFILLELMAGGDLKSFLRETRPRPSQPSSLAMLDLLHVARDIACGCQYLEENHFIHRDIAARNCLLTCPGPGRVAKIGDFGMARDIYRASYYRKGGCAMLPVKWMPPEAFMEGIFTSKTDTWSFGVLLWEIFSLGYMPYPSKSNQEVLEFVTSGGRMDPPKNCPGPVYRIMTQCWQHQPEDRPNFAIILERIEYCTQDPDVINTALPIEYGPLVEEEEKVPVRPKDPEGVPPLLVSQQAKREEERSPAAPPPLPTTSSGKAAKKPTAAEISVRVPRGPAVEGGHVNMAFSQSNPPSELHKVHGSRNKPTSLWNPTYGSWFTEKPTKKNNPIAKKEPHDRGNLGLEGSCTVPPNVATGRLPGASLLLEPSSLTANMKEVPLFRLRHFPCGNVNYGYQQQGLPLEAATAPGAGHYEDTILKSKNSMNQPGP
T1 sequence (P08581 956-1390 limits assumed): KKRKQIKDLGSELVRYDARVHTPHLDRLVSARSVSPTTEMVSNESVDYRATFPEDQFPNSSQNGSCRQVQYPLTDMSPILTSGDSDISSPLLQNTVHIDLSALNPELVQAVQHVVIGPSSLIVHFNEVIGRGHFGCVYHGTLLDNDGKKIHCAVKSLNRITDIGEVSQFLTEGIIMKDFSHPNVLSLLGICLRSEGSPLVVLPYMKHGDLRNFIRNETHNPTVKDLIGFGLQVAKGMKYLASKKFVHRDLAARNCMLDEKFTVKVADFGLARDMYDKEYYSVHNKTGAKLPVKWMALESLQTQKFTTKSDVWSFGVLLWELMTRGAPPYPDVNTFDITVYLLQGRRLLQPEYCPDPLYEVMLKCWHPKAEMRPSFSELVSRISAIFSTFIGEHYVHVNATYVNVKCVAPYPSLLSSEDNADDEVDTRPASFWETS

Row | Compound | melting point | pIC50 [1] | pIC50 [2]
1 | O=C(NCCN1CCCC1)c1ccc(-c2cnc3c(c2)N(Cc2ccccc2)C(=O)CN3)cc1 (as salt: trifluoroacetic acid salt) [Example 12, 4-(1-Benzyl-2-oxo-1,2,3,4-tetrahydropyrido[2,3-b]pyrazin-7-yl)-N-(2-pyrrolidin-1-yl-ethyl)benzamide, trifluoroacetic acid salt] | 107 °C | – | –
2 | CN(C)CCCCCCNC(=O)c1ccc(-c2cnc3c(c2)N(Cc2c(Cl)cccc2Cl)C(=O)CN3)cc1 (as salt: trifluoroacetic acid salt) [Example 143, 4-[1-(2,6-Dichlorobenzyl)-2-oxo-1,2,3,4-tetrahydropyrido[2,3-b]pyrazin-7-yl]-N-(6-dimethylaminohexyl)benzamide, trifluoroacetic acid salt] | 150 °C | – | –
3 | CN(C)CCCCNC(=O)c1ccc(-c2cnc3c(c2)N(Cc2c(Cl)cccc2Cl)C(=O)CN3)cc1 (as salt: trifluoroacetic acid salt) [Example 144, 4-[1-(2,6-Dichlorobenzyl)-2-oxo-1,2,3,4-tetrahydropyrido[2,3-b]pyrazin-7-yl]-N-(4-dimethylaminobutyl)benzamide, trifluoroacetic acid salt] | 147 °C | – | –
4 | O=C1CNc2ncc(I)cc2N1Cc1c(F)ccc(F)c1Cl [Example 3, 1-(2-Chloro-3,6-difluorobenzyl)-7-iodo-3,4-dihydro-1H-pyrido[2,3-b]pyrazin-2-one] | 237 °C | < 4.00 | 4.00 to 5.00
5 | CCOC(=O)c1ccc(-c2cnc3c(c2)N(Cc2c(F)ccc(F)c2Cl)C(=O)CN3)cc1 [Example 5, 4-[1-(2-Chloro-3,6-difluorobenzyl)-2-oxo-1,2,3,4-tetrahydropyrido[2,3-b]pyrazin-7-yl]benzoic acid ethyl ester] | 180 to 182 °C | < 4.00 | 5.00 to 6.00
6 | O=C1CNc2ncc(I)cc2N1Cc1ccccc1 [Example 8, 1-Benzyl-7-iodo-3,4-dihydro-1H-pyrido[2,3-b]pyrazin-2-one] | 225 °C | < 4.00 | 4.00 to 5.00
7 | CCOC(=O)c1ccc(-c2cnc3c(c2)N(Cc2ccccc2)C(=O)CN3)cc1 [Example 9, 4-(1-Benzyl-2-oxo-1,2,3,4-tetrahydropyrido[2,3-b]pyrazin-7-yl)benzoic acid ethyl ester] | 178 °C | < 4.00 | 4.00 to 5.00
8 | O=C(O)c1ccc(-c2cnc3c(c2)N(Cc2ccccc2)C(=O)CN3)cc1 [Example 10, 4-(1-Benzyl-2-oxo-1,2,3,4-tetrahydropyrido[2,3-b]pyrazin-7-yl)benzoic acid] | > 200 °C | < 4.00 | 4.00 to 5.00
9 | CC(=O)c1ccc(-c2cnc3c(c2)N(Cc2ccccc2)C(=O)CN3)cc1 [Example 21, 7-(4-Acetylphenyl)-1-benzyl-3,4-dihydro-1H-pyrido[2,3-b]pyrazin-2-one] | 200 °C | < 4.00 | 4.00 to 5.00
10 | CN1CCN(c2ccc(-c3cnc4c(c3)C(Cc3cc(F)ccc3F)CCN4)cn2)CC1 (centres unmarked) [Example 286, 4-(2,5-Difluorobenzyl)-6-[6-(4-methylpiperazin-1-yl)pyridin-3-yl]-1,2,3,4-tetrahydro-[1,8]naphthyridine] | – | < 4.00 | 5.00 to 6.00
11 | FC(F)(F)c1ccc(CN2CCNc3ncc(-c4ccc(N5CCOCC5)nc4)cc32)o1 [Example 292, 7-(6-Morpholin-4-yl-pyridin-3-yl)-1-[5-(trifluoromethyl)furan-2-ylmethyl]-1,2,3,4-tetrahydropyrido[2,3-b]pyrazine] | – | < 4.00 | 5.00 to 6.00
12 | O=C(O)c1ccc(-c2cnc3c(c2)N(Cc2cccnc2Cl)CCN3)cc1 [Example 302, 4-[1-(2-Chloropyridin-3-ylmethyl)-1,2,3,4-tetrahydropyrido[2,3-b]pyrazin-7-yl]benzoic acid] | – | < 4.00 | < 4.00
13 | O=C(c1ccc(-c2cnc3c(c2)N(Cc2cccnc2Cl)CCN3)cc1)N1CCC(N2CCCC2)CC1 [Example 303, {4-[1-(2-Chloropyridin-3-ylmethyl)-1,2,3,4-tetrahydropyrido[2,3-b]pyrazin-7-yl]phenyl}-(4-pyrrolidin-1-yl-piperidin-1-yl)methanone] | – | < 4.00 | < 4.00
14 | O=C1CN(Cc2c(F)ccc(F)c2Cl)c2cc(Br)cnc2N1 [Example 436, 7-Bromo-1-(2-chloro-3,6-difluorobenzyl)-1,4-dihydro-2H-pyrido[2,3-b]pyrazin-3-one] | 214 to 216 °C (dec.) | – | –

The next lines start with the values.

Row | melting point | pIC50 [1] | pIC50 [2] | Compound
15 | 200 °C (dec.) | 4.00 to 5.00 | 4.00 to 5.00 | CCOC(=O)CNc1ncc(I)cc1[N+](=O)[O-] [Example 1, (5-Iodo-3-nitro-pyridin-2-ylamino)-acetic acid ethyl ester]
16 | 81 °C | < 4.00 | < 4.00 | O=C1CNc2ncc(I)cc2N1 [Example 2, 7-Iodo-3,4-dihydro-1H-pyrido[2,3-b]pyrazin-2-one]
17 | 58 °C | 4.00 to 5.00 | 4.00 to 5.00 | O=C1CNc2ncc(-c3cccnc3)cc2N1Cc1ccccc1 [Example 11, 1-Benzyl-7-pyridin-3-yl-3,4-dihydro-1H-pyrido[2,3-b]pyrazin-2-one]
18 | > 200 °C | 4.00 to 5.00 | 5.00 to 6.00 | CN(C)CCCCCCNC(=O)c1ccc(-c2cnc3c(c2)N(Cc2ccccc2)C(=O)CN3)cc1 [Example 16, 4-(1-benzyl-2-oxo-1,2,3,4-tetrahydropyrido[2,3-b]pyrazin-7-yl)-N-(6-dimethylaminohexyl)benzamide]
19 | > 200 °C | 4.00 to 5.00 | 5.00 to 6.00 | NC(=O)c1ccc(-c2cnc3c(c2)N(Cc2ccccc2)C(=O)CN3)cc1 [Example 23, 4-(1-Benzyl-2-oxo-1,2,3,4-tetrahydropyrido[2,3-b]pyrazin-7-yl)benzamide]
20 | 195 °C | 4.00 to 5.00 | 4.00 to 5.00 | CCNC(=O)c1ccc(-c2cnc3c(c2)N(Cc2ccccc2)C(=O)CN3)cc1 [Example 27, 4-(1-Benzyl-2-oxo-1,2,3,4-tetrahydropyrido[2,3-b]pyrazin-7-yl)-N-ethyl-benzamide]
21 | – | 4.00 to 5.00 | 4.00 to 5.00 | CN1CCN(c2ccc(-c3cnc4c(c3)C(Oc3c(F)ccc(F)c3Cl)CCN4)cn2)CC1 (centres unmarked) [Example 273, 4-(2-Chloro-3,6-difluorophenoxy)-6-[6-(4-methylpiperazin-1-yl)pyridin-3-yl]-1,2,3,4-tetrahydro-[1,8]naphthyridine]
22 | – | 5.00 to 6.00 | 5.00 to 6.00 | CN1CCN(C(=O)c2ccc(-c3cnc4c(c3)C(Oc3cccc(Cl)c3)CCN4)cc2)CC1 (centres unmarked) [Example 274, {4-[5-(3-Chlorophenoxy)-5,6,7,8-tetrahydro-[1,8]naphthyridin-3-yl]-phenyl}-(4-methylpiperazin-1-yl)methanone]
23 | – | 5.00 to 6.00 | 4.00 to 5.00 | CN1CCN(C(=O)c2ccc(-c3cnc4c(c3)C(Oc3cc(Cl)cc(Cl)c3)CCN4)cc2)CC1 (centres unmarked) [Example 275, {4-[5-(3,5-Dichlorophenoxy)-5,6,7,8-tetrahydro-[1,8]naphthyridin-3-yl]phenyl}-(4-methylpiperazin-1-yl)methanone]
24 | – | 4.00 to 5.00 | 4.00 to 5.00 | CN1CCN(C(=O)c2ccc(-c3cnc4c(c3)C(Oc3cccnc3)CCN4)cc2)CC1 (centres unmarked) [Example 276, (4-Methylpiperazin-1-yl)-{4-[5-(pyridine-3-yloxy)-5,6,7,8-tetrahydro-[1,8]naphthyridin-3-yl]phenyl}methanone]
25 | – | 4.00 to 5.00 | 4.00 to 5.00 | CC(=O)c1ccc(F)cc1OC1CCNc2ncc(-c3ccc(C(=O)N4CCN(C)CC4)cc3)cc21 (centres unmarked) [Example 277, 1-(4-Fluoro-2-{6-[4-(4-methylpiperazine-1-carbonyl)phenyl]-1,2,3,4-tetrahydro-[1,8]naphthyridin-4-yloxy}phenyl)ethanone]
26 | – | 5.00 to 6.00 | 5.00 to 6.00 | CN1CCN(c2cc(-c3cnc4c(c3)C(Oc3cccc(Cl)c3)CCN4)ccn2)CC1 (centres unmarked) [Example 278, 4-(3-Chlorophenoxy)-6-[2-(4-methylpiperazin-1-yl)pyridin-4-yl]-1,2,3,4-tetrahydro-[1,8]naphthyridine]
27 | – | 4.00 to 5.00 | 5.00 to 6.00 | Clc1cccc(OC2CCNc3ncc(-c4cccc(N5CCOCC5)c4)cc32)c1 (centres unmarked) [Example 279, 4-(3-Chlorophenoxy)-6-(3-morpholin-4-yl-phenyl)-1,2,3,4-tetrahydro-[1,8]naphthyridine]
28 | – | 5.00 to 6.00 | 6.00 to 7.00 | CN1CCN(c2ccc(-c3cnc4c(c3)C(Oc3cccc(Cl)c3)CCN4)cn2)CC1 (centres unmarked) [Example 281, 4-(3-Chlorophenoxy)-6-[6-(4-methylpiperazin-1-yl)pyridin-3-yl]-1,2,3,4-tetrahydro-[1,8]naphthyridine]
29 | – | 5.00 to 6.00 | 5.00 to 6.00 | CN1CCN(c2cc(-c3cnc4c(c3)N(Cc3ccc(C(F)(F)F)o3)CCN4)ccn2)CC1 [Example 293, 7-[2-(4-Methylpiperazin-1-yl)pyridin-4-yl]-1-[5-(trifluoromethyl)furan-2-ylmethyl]-1,2,3,4-tetrahydropyrido[2,3-b]pyrazine]
30 | – | 5.00 to 6.00 | > 7.00 | O=C(c1ccc(-c2cnc3c(c2)N(Cc2ccccc2OC(F)(F)F)CCN3)cc1)N1CCC(N2CCCC2)CC1 [Example 305, (4-Pyrrolidin-1-yl-piperidin-1-yl)-(4-{1-[2-(trifluoromethoxy)benzyl]-1,2,3,4-tetrahydropyrido[2,3-b]pyrazin-7-yl}phenyl)methanone]
